We go through 23 compounds from patent US9403802B2, “Heterocyclic compound and use therefor” (Takeda Pharmaceutical Company Limited, priority 2012, dated 2016).

Molecules are shown by their SMILES. Where two headings read alike, the source gives them in different places.

This experiment has as its target T1, human M1 receptor (hCHRM1) (Homo sapiens, UniProt P11229).
T1 construct: expressed in transfected cells; host or cells: CHO-K1
T1 sequence (P11229 1-460): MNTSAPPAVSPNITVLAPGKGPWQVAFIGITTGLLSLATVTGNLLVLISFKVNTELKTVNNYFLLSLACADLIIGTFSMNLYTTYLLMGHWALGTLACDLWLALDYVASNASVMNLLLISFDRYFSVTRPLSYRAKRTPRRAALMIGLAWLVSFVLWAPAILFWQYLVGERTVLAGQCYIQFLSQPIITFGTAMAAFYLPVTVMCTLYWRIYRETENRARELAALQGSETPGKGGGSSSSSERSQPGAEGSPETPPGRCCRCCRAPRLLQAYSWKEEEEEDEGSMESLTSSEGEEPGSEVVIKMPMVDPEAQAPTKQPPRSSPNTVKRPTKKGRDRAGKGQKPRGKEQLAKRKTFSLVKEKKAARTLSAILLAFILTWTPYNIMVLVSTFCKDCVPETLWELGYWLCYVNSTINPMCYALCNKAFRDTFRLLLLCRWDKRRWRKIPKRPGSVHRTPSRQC
As to the kind of experiment: Measurement of cholinergic muscarinic M1 receptor positive allosteric modulator (M1PAM) activity, calcium fluorescence (FLIPRtetra). It counts as cell-based. To be noted: for activity (%) at 10 μM: test compound 10 μM with acetylcholine at EC20 (final 0.6 nM), 100% = acetylcholine 1 μM, 0% = DMSO. As for the experimental part:
The activity of a test compound in the presence of acetylcholine at EC20 concentration (final concentration 0.6 nM), which affords an action corresponding to 20% of the maximum activity, was measured as M1PAM activity. The method is as follows. CHO-K1 cells forcibly expressing a human M1 receptor (hCHRM1) were plated on a 384-well black clear bottom plate (BD Falcon) at 5,000 cells/well, and cultured in an incubator at 37° C., 5% CO2 for 1 day. The medium in the cell plate was removed, and assay buffer A (Recording medium (DOJINDO LABORATORIES), 0.1% bovine serum albumin (BSA) (Wako Pure Chemical Industries, Ltd.), 2.5 μg/mL Fluo-4 AM (DOJINDO LABORATORIES), 0.08% Pluronic F127 (DOJINDO LABORATORIES), 1.25 mM probenecid (DOJINDO LABORATORIES)) containing a calcium indicator was added at 30 μL/well. The cells were left standing in the incubator at 37° C., 5% CO2 for 30 min, and further left standing at room temperature for 30 min. A test compound prepared by diluting with assay buffer B (HBSS (Invitrogen), 20 mM HEPES (Invitrogen), 0.1% BSA) containing 2.4 nM acetylcholine was added at 10 μL/well, and the fluorescence was measured by FLIPRtetra (Molecular Devices) for 1 min every 1 second. With the definition that the amount of change in the fluorescence on addition of acetylcholine (final concentration 1 μM) is 100% and that on addition of DMSO instead of a test compound is 0%, the activity (%) of the test compound and the inflection point in the concentration-dependent curve of the test compound were calculated as IP values.

Setting [1] is: inflection point of the concentration-dependent curve, with acetylcholine at EC20 (final 0.6 nM), CHO-K1 cells expressing hCHRM1, read-out: IP value.

Consider `O=C(N[C@H]1CCCC[C@@H]1O)c1cn(Cc2ccc(-n3cccn3)cc2)c2c(F)ccc(F)c2c1=O` (racemic) [Example 3, 5,8-difluoro-N-[(1,2-trans)-2-hydroxycyclohexyl]-4-oxo-1-[4-(1H-pyrazol-1-yl)benzyl]-1,4-dihydroquinoline-3-carboxamide], for which the EC50 came to 8.7 nM. Under “CHO-K1 cells expressing hCHRM1”, the “activity (%) at 10 μM” value is 93%.

Regarding `O=C(N[C@H]1CCCC[C@@H]1O)c1nn(Cc2ccc(-n3cccn3)cc2)c2ccccc2c1=O` (racemic) [Example 4, N-[(1,2-trans)-2-hydroxycyclohexyl]-4-oxo-1-[4-(1H-pyrazol-1-yl)benzyl]-1,4-dihydrocinnoline-3-carboxamide], the EC50 under setting [1] was 27 nM. The “activity (%) at 10 μM” value (CHO-K1 cells expressing hCHRM1) came out at 107%.

Turning to `COc1ccc(Cn2cc(C(=O)N[C@H]3CCC[C@@H]3O)c(=O)c3c(F)ccc(F)c32)cc1` (racemic) [Example 25, 5,8-difluoro-N-[(1,2-trans)-2-hydroxycyclopentyl]-1-(4-methoxybenzyl)-4-oxo-1,4-dihydroquinoline-3-carboxamide], under setting [1], the EC50 stood at 190 nM. Moreover, under “CHO-K1 cells expressing hCHRM1”, the “activity (%) at 10 μM” value was 98%.

Regarding `COc1ccc(Cn2cc(C(=O)NC3CCCCC3CO)c(=O)c3c(F)ccc(F)c32)cc1` (racemic) [Example 65, 5,8-difluoro-N-[(1,2-trans)-2-(hydroxymethyl)-cyclohexyl]-1-(4-methoxybenzyl)-4-oxo-1,4-dihydroquinoline-3-carboxamide], the EC50 under setting [1] is 420 nM. The “activity (%) at 10 μM” value (CHO-K1 cells expressing hCHRM1) turned out to be 96%.

For the compound `COc1ccc(Cn2nc(C(=O)N[C@H]3CCOC[C@@H]3O)c(=O)c3ccccc32)cc1` (racemic) [Example 71, 1,5-anhydro-2,3-dideoxy-3-({[1-(4-methoxybenzyl)-4-oxo-1,4-dihydrocinnolin-3-yl]carbonyl}amino)-DL-threo-pentitol], the EC50 under setting [1] stood at 16 nM. Besides, under “CHO-K1 cells expressing hCHRM1”, the “activity (%) at 10 μM” value is 97%.

Turning to `NC(=O)c1ccc(Cn2cc(C(=O)N[C@H]3CCCC[C@@H]3O)c(=O)c3ccccc32)cc1` (racemic) [Example 74, 1-(4-carbamoylbenzyl)-N-[(1,2-trans)-2-hydroxycyclohexyl]-4-oxo-1,4-dihydroquinoline-3-carboxamide], the EC50 is 5.4 nM. Moreover, for the setting “CHO-K1 cells expressing hCHRM1”, the “activity (%) at 10 μM” value is recorded as 97%.

Regarding `NC(=O)c1ccc(Cn2nc(C(=O)N[C@H]3CCCC[C@@H]3O)c(=O)c3ccccc32)cc1` (racemic) [Example 75, 1-(4-carbamoylbenzyl)-N-[(1,2-trans)-2-hydroxycyclohexyl]-4-oxo-1,4-dihydrocinnoline-3-carboxamide], the EC50 under setting [1] is 7.7 nM. For the same compound, the “activity (%) at 10 μM” value (CHO-K1 cells expressing hCHRM1) is reported as 99%.

As for `O=C(N[C@H]1CCCC[C@@H]1O)c1cn(Cc2ccc(-n3cccn3)cc2)c2c(F)cccc2c1=O` (racemic) [Example 80, 8-fluoro-N-[(1,2-trans)-2-hydroxycyclohexyl]-4-oxo-1-[4-(1H-pyrazol-1-yl)benzyl]-1,4-dihydroquinoline-3-carboxamide], the EC50 came out at 21 nM. Where the note is “CHO-K1 cells expressing hCHRM1”, the “activity (%) at 10 μM” value is reported as 92%.

Consider `CC(F)(F)c1ccc(Cn2cc(C(=O)N[C@H]3CCCC[C@@H]3O)c(=O)c3ccccc32)cc1` (racemic) [Example 82, 1-[4-(1,1-difluoroethyl)-benzyl]-N-[(1,2-trans)-2-hydroxycyclohexyl]-4-oxo-1,4-dihydroquinoline-3-carboxamide], for which the EC50 under setting [1] came to 170 nM. Further, the “activity (%) at 10 μM” value (CHO-K1 cells expressing hCHRM1) worked out at 83%.

`COc1ccc(Cn2cc(C(=O)N[C@H]3CC(F)(F)CC[C@@H]3O)c(=O)c3c(F)ccc(F)c32)cc1` (racemic) [Example 84, N-[(1,2-trans)-5,5-difluoro-2-hydroxycyclohexyl]-5,8-difluoro-1-(4-methoxybenzyl)-4-oxo-1,4-dihydroquinoline-3-carboxamide]: the EC50 turned out to be 91 nM. Moreover, the “activity (%) at 10 μM” value (CHO-K1 cells expressing hCHRM1) was found to be 85%.

Consider `O=C(N[C@H]1CCCC[C@@H]1O)c1cn(Cc2ccc(-c3ccn[nH]3)cc2)c2ccccc2c1=O` (racemic) [Example 85, N-[(1,2-trans)-2-hydroxycyclohexyl]-4-oxo-1-[4-(1H-pyrazol-5-yl)benzyl]-1,4-dihydroquinoline-3-carboxamide], for which the EC50 was found to be 4.7 nM. For the setting “CHO-K1 cells expressing hCHRM1”, the “activity (%) at 10 μM” value was 90%.

Take `NC(=O)c1ccc(Cn2cc(C(=O)N[C@H]3CCCC[C@@H]3F)c(=O)c3ccccc32)cc1` (racemic) [Example 88, 1-(4-carbamoylbenzyl)-N-[(1,2-trans)-2-fluorocyclohexyl]-4-oxo-1,4-dihydroquinoline-3-carboxamide]: the EC50 is 12 nM. For the same compound, the “activity (%) at 10 μM” value (CHO-K1 cells expressing hCHRM1) came out at 101%.

With `Cc1cc(-c2ccc(Cn3cc(C(=O)N[C@H]4CCC[C@@H]4O)c(=O)c4ccccc43)cc2)ccn1` (racemic) [Example 93, N-[(1,2-trans)-2-hydroxycyclopentyl]-1-[4-(2-methylpyridin-4-yl)benzyl]-4-oxo-1,4-dihydroquinoline-3-carboxamide], the EC50 is 12 nM. Under “CHO-K1 cells expressing hCHRM1”, the “activity (%) at 10 μM” value was 95%.

Regarding `COc1ccc(Cn2cc(C(N)=O)c(=O)c3c(F)ccc(F)c32)cc1` [Example 1, 5,8-difluoro-1-(4-methoxybenzyl)-4-oxo-1,4-dihydroquinoline-3-carboxamide], the EC50 under setting [1] came to 630 nM. The “activity (%) at 10 μM” value (CHO-K1 cells expressing hCHRM1) amounted to 90%.

For `CNC(=O)c1cn(Cc2ccc(OC)cc2)c2c(F)ccc(F)c2c1=O` [Example 7, 5,8-difluoro-1-(4-methoxybenzyl)-N-methyl-4-oxo-1,4-dihydroquinoline-3-carboxamide], under setting [1], the EC50 was 3500 nM. Where the note is “CHO-K1 cells expressing hCHRM1”, the “activity (%) at 10 μM” value was 71%.

`COc1ccc(Cn2cc(C(=O)NC3CC3)c(=O)c3c(F)ccc(F)c32)cc1` [Example 8, N-cyclopropyl-5,8-difluoro-1-(4-methoxybenzyl)-4-oxo-1,4-dihydroquinoline-3-carboxamide]: the EC50 under setting [1] was 2000 nM. In addition, the “activity (%) at 10 μM” value (CHO-K1 cells expressing hCHRM1) worked out at 100%.

For `COc1ccc(Cn2cc(C(=O)NN)c(=O)c3ccccc32)cc1` [Example 13, 1-(4-methoxybenzyl)-4-oxo-1,4-dihydroquinoline-3-carbohydrazide], the EC50 under setting [1] is 6100 nM. Further, for the setting “CHO-K1 cells expressing hCHRM1”, the “activity (%) at 10 μM” value was 77%.

Regarding `COc1ccc(Cn2cc(C(=O)NC3CCCCC3)c(=O)c3c(F)ccc(F)c32)cc1` [Example 14, N-cyclohexyl-5,8-difluoro-1-(4-methoxybenzyl)-4-oxo-1,4-dihydroquinoline-3-carboxamide], the EC50 under setting [1] came out at 920 nM. Moreover, the “activity (%) at 10 μM” value (CHO-K1 cells expressing hCHRM1) is recorded as 96%.

In the case of `COc1ccc(Cn2cc(C(=O)NCCO)c(=O)c3c(F)ccc(F)c32)cc1` [Example 17, 5,8-difluoro-N-(2-hydroxyethyl)-1-(4-methoxybenzyl)-4-oxo-1,4-dihydroquinoline-3-carboxamide], the EC50 under setting [1] is 5800 nM. In addition, under “CHO-K1 cells expressing hCHRM1”, the “activity (%) at 10 μM” value turned out to be 69%.

For `COCCNC(=O)c1cn(Cc2ccc(OC)cc2)c2c(F)ccc(F)c2c1=O` [Example 20, 5,8-difluoro-1-(4-methoxybenzyl)-N-(2-methoxyethyl)-4-oxo-1,4-dihydroquinoline-3-carboxamide], the EC50 under setting [1] is 5000 nM. Besides, where the note is “CHO-K1 cells expressing hCHRM1”, the “activity (%) at 10 μM” value was 72%.

As for `COc1ccc(Cn2cc(C(=O)NN3CCCCC3)c(=O)c3c(F)ccc(F)c32)cc1` [Example 21, 5,8-difluoro-1-(4-methoxybenzyl)-4-oxo-N-piperidin-1-yl-1,4-dihydroquinoline-3-carboxamide], the EC50 under setting [1] turned out to be 280 nM. Moreover, for the setting “CHO-K1 cells expressing hCHRM1”, the “activity (%) at 10 μM” value amounted to 97%.

Turning to `COc1ccc(Cn2cc(C(=O)N[C@H]3CCCC[C@@H]3O)c(=O)c3c(F)ccc(F)c32)cc1` [Example 27, 5,8-difluoro-N-[(1S,2S)-2-hydroxycyclohexyl]-1-(4-methoxybenzyl)-4-oxo-1,4-dihydroquinoline-3-carboxamide], the EC50 stood at 38 nM. Moreover, the “activity (%) at 10 μM” value (CHO-K1 cells expressing hCHRM1) turned out to be 102%.

Consider `COc1ccc(Cn2nc(C(=O)N[C@H]3CCCC[C@@H]3O)c(=O)c3ccccc32)cc1` [Example 51, N-[(1S,2S)-2-hydroxycyclohexyl]-1-(4-methoxybenzyl)-4-oxo-1,4-dihydrocinnoline-3-carboxamide], for which the EC50 under setting [1] was 68 nM. The “activity (%) at 10 μM” value (CHO-K1 cells expressing hCHRM1) came to 97%.
